The IC50 is the point on the concentration scale where inhibition reaches its midpoint. As usually defined, the pIC50 is −log10 of the IC50, conventionally taken in molar units.

Drawing on PubChem BioAssay AID1361 (SRMLSC, 2008), this text covers IC50 for 68 molecules.

pIC50: −log10 of the molar value. Active and inactive are the calls of the source. The rule behind the calls is not given here.

This test is described as follows: mitochondrial fusion inhibitors, confirmation, cell-based, chemical genetic, wild-type and mutant (AID 1361). Conditions: Cell-based mitochondrial fusion phenotype, imaging.
Setting [1] is: mutant cells, measured here: mutant cell line IC50.

For the molecule `O=C(c1ccco1)N1CCN(C(=O)C2c3ccccc3Oc3ccccc32)CC1`, the IC50 (WT cells) is > 25 µM (inactive). Further, under setting [1], the pIC50 is below 4.60.
For `CC(C)(C)c1ccc(CSc2nnc(-c3ccccn3)n2Cc2ccco2)cc1`, the pIC50 is 4.75 (WT cells) and below 4.60 under setting [1].
For `Cc1ccc(Cl)cc1N1CCN(CC(=O)NC2CCCc3ccccc32)CC1` (stereo unspecified), in that order: 4.94 and 4.63.
In the case of `CCc1cc2c(=O)c(-c3cscn3)coc2cc1O`, where the note is “WT cells”, the IC50 was > 25 µM (inactive). Under setting [1], this molecule showed a pIC50 below 4.60.
In the same order, the values of `Cc1nn(-c2ccccc2)c(C)c1NC(=O)c1ccc(S(=O)(=O)N2CCCC2)cc1` are > 25 µM (inactive) and below 4.60.
In the case of `CN1CC(c2ccccc2)C2(SC(=S)N(Cc3ccco3)C2=O)C12C(=O)Nc1ccccc12` (stereo unspecified), the pIC50 was 5.16 (WT cells) and 4.92 under setting [1].
Turning to `OCCNc1c2c(nc3ccccc13)CCCC2`, for the setting “WT cells”, the IC50 was > 25 µM (inactive). Further, the pIC50 under setting [1] is below 4.60.
Regarding `N#CC1=C(N)NC(SCc2ccc(Br)cc2)=C(C#N)C12CCCCC2`, the IC50 (WT cells) is > 25 µM (inactive). The pIC50 under setting [1] was below 4.60.
`CCOC(=O)c1cnc(-n2nc(C)cc2C)nc1NNc1cc(C)nc(-c2ccccc2)n1`: the pIC50 reads like this: (WT cells) 4.79; under setting [1], below 4.60.
Turning to `O=c1c2c3c(sc2nc(NCCO)n1CCc1ccccc1)CCCCC3`, the pIC50 runs as follows: (WT cells) 4.65; under setting [1], below 4.60.
In the same order, the values of `Cc1[nH]c2ccc(F)cc2c1CCN(Cc1ccco1)C(=S)NC(C)(C)C` are 4.90 and below 4.60.
For `CC(C)C(=O)Nc1cc(S(=O)(=O)Nc2ccc(Cl)cc2)ccc1Cl`, in that order: 4.66 and below 4.60.
In the case of `Cc1cccc(OCCCC(=O)Nc2ccc3c(c2)OCO3)c1`, the IC50 (WT cells) is > 25 µM (inactive). This molecule also gave a pIC50 under setting [1] below 4.60.
As for `CC(=O)Nc1cccc(Oc2ncnc3scc(-c4ccc(C(C)C)cc4)c23)c1`, the negative logarithm of the IC50 (pIC50) reads like this: (WT cells) 4.84; under setting [1], below 4.60.
Consider `COc1ccc(C(=O)Nc2ccc(Cl)cc2C(=O)NCCN2CCOCC2)cc1`, for which, for the setting “WT cells”, the IC50 was > 25 µM (inactive). The pIC50 under setting [1] is below 4.60.
For `COc1ccc(OC)c2c(N)c(C#N)c(C(F)(F)C(F)(F)F)nc12`, in that order: > 25 µM (inactive) and below 4.60.
In the case of `N#CCCN(CCC#N)c1nnc(-c2ccccc2)s1`, the IC50 (WT cells) was > 25 µM (inactive). This molecule also had a pIC50 under setting [1] below 4.60.
In the same order, the values of `O=C(CSc1ccccc1)NCc1cccnc1` are > 25 µM (inactive) and below 4.60.
On to `CC1CC1C(=O)OCC(=O)NCc1ccc(Cl)cc1Cl` (stereo unspecified), for which the IC50 (WT cells) is > 25 µM (inactive). Under setting [1], the pIC50 was below 4.60.
Take `CC(C)(C)NC(=O)NC(=O)COC(=O)Cc1coc2ccc3ccccc3c12`: the pIC50 is, setting by setting: (WT cells) 4.67; under setting [1], below 4.60.
`COC(=O)C1=C(CSc2nc3ccccc3o2)NC(=O)NC1c1cc(C)ccc1C` (stereo unspecified): the IC50 (WT cells) was > 25 µM (inactive). For the same molecule, the pIC50 under setting [1] was below 4.60.
Regarding `CC1CCN(c2nc(Cl)nc(Nc3ccc([N+](=O)[O-])cc3)n2)CC1`, the pIC50 is 5.13 (WT cells) and below 4.60 under setting [1].
In the case of `CCOC(=O)c1sc2nc(CSc3ccccc3)nc(N3CCC(C(N)=O)CC3)c2c1C`, the IC50 (WT cells) was > 25 µM (inactive). The molecule further had a pIC50 under setting [1] below 4.60.
For `O=S(=O)(NCC(Nc1ccc(Cl)cc1)c1ccccc1)c1ccc(Cl)cc1` (stereo unspecified), in that order: > 25 µM (inactive) and below 4.90.
In the same order, the values of `CCOC(=O)/C(=C/c1ccc(N2CCC(c3ccccc3)=N2)cc1)C(C)=O` are > 25 µM (inactive) and below 4.60.
As to `Brc1cnc(N2CCCCC2)nc1N1CCOCC1`, the IC50 (WT cells) is > 25 µM (inactive). The same molecule had a pIC50 under setting [1] below 4.60.
Regarding `Clc1cncc(Cl)c1NNc1c2ccccc2nc2ccccc12`, the IC50 (WT cells) was > 25 µM (inactive). The pIC50 under setting [1] was below 4.60.
For the molecule `CCOC(=O)c1[nH]c2ccc(OC)cc2c1NC(=O)C(C)N1CCC2(CC1)OCCO2` (stereo unspecified), the IC50 (WT cells) is > 25 µM (inactive). Under setting [1], this molecule gave a pIC50 below 4.60.
Turning to `O=C(OCC(=O)N1CCN(C(=O)c2ccco2)CC1)c1cn(-c2ccccc2)nc1-c1ccccc1`, the negative-log IC50 (pIC50) by setting is: (WT cells) 4.88; under setting [1], 4.79.
For `O=C1NC(Nc2nc3ccccc3s2)(C(F)(F)F)C(=O)N1C1CCCCC1` (stereo unspecified), in that order: 4.70 and below 4.60.
Take `C=CCn1c(C)c(C(C)=O)c(N2CCN(C(c3ccccc3)c3ccccc3)CC2)nc1=S`: the negative-log IC50 (pIC50) was 4.88 (WT cells) and below 4.60 under setting [1].
For `NNC(=O)c1cc2c(N3CCC(Cc4ccccc4)CC3)ncnc2s1`, in that order: 4.76 and below 4.60.
In the same order, the values of `CCOC(=O)C1=C(C)NC(=S)NC1c1ccc(-c2ccc(Cl)cc2)o1` (stereo unspecified) are 4.98 and 4.62.
In the same order, the values of `COc1ccc(C(=NNc2ccccc2C(=O)O)c2ccc(OC)cc2)cc1` are 4.75 and below 4.60.
As for `COC(=O)c1c(NC(=O)CN2CCC3(O)CCCCC3C2c2ccc(OC)cc2OC)sc(C)c1C` (stereo unspecified), the negative logarithm of the IC50 (pIC50) (WT cells) is 4.83 and the pIC50 under setting [1] was below 4.60.
On to `Cc1cccc(OCC(=O)Nc2nc3ccc([N+](=O)[O-])cc3s2)c1C`, for which the IC50 (WT cells) is > 25 µM (inactive). Also, under setting [1], the pIC50 was below 4.60.
Turning to `c1ccc(-c2cn3c(n2)CCc2ccc4cccnc4c2-3)cc1`, the IC50 (WT cells) was 23.7 µM (inactive). Further, the pIC50 under setting [1] was 4.67.
`Cc1ccc(NNC(=S)Nc2ccc(C(C)C)cc2)c(C)c1`: the pIC50 reads like this: (WT cells) 4.81; under setting [1], below 4.60.
For the molecule `COc1ccc(NC(=O)CSc2ccc3c(c2)OCCO3)cc1OC`, the IC50 (WT cells) is > 25 µM (inactive). Besides, the pIC50 under setting [1] is below 4.60.
As for `CC/C(=C\C1CCCCC1)C(NP(=O)(c1ccccc1)c1ccccc1)c1ccccc1` (stereo unspecified), the pIC50 by setting is: (WT cells) 5.12; under setting [1], below 4.60.
In the same order, the values of `CCN(c1ccc2c(c1)OCO2)S(=O)(=O)c1cc(Br)cc2c1N(C(=O)C1CC1)CC2` are 4.88 and below 4.60.
In the case of `COc1ccc(C(C)(C)C)cc1NC(=O)c1cncc(Br)c1`, the IC50 (WT cells) is > 25 µM (inactive). Moreover, under setting [1], the pIC50 was below 4.60.
In the same order, the values of `COc1ccccc1CNc1nc2nc(C)c(C)c(=O)n2[nH]1` are > 25 µM (inactive) and below 4.60.
Consider `COc1ccc(NC(=S)Nc2ccc(OCc3ccccc3)cc2)c(OC)c1`, for which the pIC50 (WT cells) is 4.76 and the pIC50 under setting [1] was 4.60.
In the same order, the values of `COCCn1c(SCc2nnc(-c3ccccc3)o2)nc2sc3c(c2c1=O)CCC3` are 5.08 and 4.75.
For the molecule `CC(=O)Cc1nsc(NC(=O)c2ccc(-c3cc(Cl)ccc3Cl)o2)n1`, for the setting “WT cells”, the IC50 was > 25 µM (inactive). In addition, the pIC50 under setting [1] was below 4.60.
For `CCOC(=O)N1CCN(S(=O)(=O)c2ccc(C)cc2)C1c1ccc(OC)cc1` (stereo unspecified), in that order: > 25 µM (inactive) and below 4.60.
Consider `COC(=O)c1ccccc1NC(=O)CNc1cc(Cl)ccc1N1CCOCC1`, for which the pIC50 by setting is: (WT cells) 4.61; under setting [1], below 4.60.
In the same order, the values of `Cc1ccc(C(=O)NC(=S)/C=C2\N(C)c3ccccc3C2(C)C)cc1` are 4.92 and below 4.60.
Take `CCOC(=O)c1sc(/N=C/c2c(C)[nH]n(-c3ccccc3)c2=O)c(C#N)c1C`: the IC50 (WT cells) was > 25 µM (inactive). The molecule also showed a pIC50 under setting [1] below 4.60.
With `Cc1ccccc1C(=O)Oc1ccc(Sc2ccc(O)cc2)cc1`, the pIC50 (WT cells) is 5.06 and the pIC50 under setting [1] was below 4.60.
Turning to `CCn1nccc1C(=O)Nc1ccc(S(=O)(=O)NC23CC4CC(CC(C4)C2)C3)cc1`, the IC50 (WT cells) was > 25 µM (inactive). Under setting [1], this molecule had a pIC50 below 4.60.
In the case of `COc1ccc(CCn2nnnc2C(C(C)C)N2CCN(c3ncccn3)CC2)cc1OC` (stereo unspecified), for the setting “WT cells”, the IC50 was > 25 µM (inactive). Moreover, the pIC50 under setting [1] was below 4.60.
With `CCCCSc1nnc(-c2ccccc2)c2ccccc12`, the IC50 (WT cells) was 24.9 µM (inactive). Besides, the pIC50 under setting [1] is below 4.60.
On to `O=c1cc(N2CCCCC2)c(-c2ccccc2)nn1Cc1ccc(F)cc1`, for which the pIC50 (WT cells) was 4.76 and the pIC50 under setting [1] is below 4.60.
As to `CCOC(=O)c1sc(NC(=O)/C=C/c2cnn(CC)c2C)c(C(=O)OCC)c1C`, the IC50 (WT cells) is > 25 µM (inactive). Under setting [1], this molecule had a pIC50 below 4.60.
Consider `c1ccc(-c2csc3ncnc(N4CCc5ccccc5C4)c23)cc1`, for which the pIC50 is 5.03 (WT cells) and below 4.60 under setting [1].
Take `Cc1ccc2nc(N/N=C/c3ccccc3F)nc(-c3ccccc3)c2c1`: the negative-log IC50 (pIC50) is 5.12 (WT cells) and 4.78 under setting [1].
For `COc1ccccc1N1CCN(C(=O)c2oc3cc(C)cc(C)c3c2C)CC1`, in that order: 4.62 and below 4.60.
In the case of `Clc1ccc(CSc2nnc(-c3ccncc3)o2)c(Cl)c1`, the IC50 (WT cells) is > 25 µM (inactive). Besides, the pIC50 under setting [1] was below 4.60.
Regarding `O=C(Cc1ccc(Cl)cc1)Nc1ccccc1CO`, the IC50 (WT cells) is > 25 µM (inactive). For the same molecule, the pIC50 under setting [1] is below 4.60.
As to `CCCc1cc(-c2nc(N)ncc2-c2ccc3c(c2)OCCCO3)c(O)cc1OC`, the pIC50 by setting is: (WT cells) 4.85; under setting [1], below 4.60.
Take `CC(C)(C)c1ccc(OCC(=O)N2CCCCCC2)c(Br)c1`: for the setting “WT cells”, the IC50 is > 25 µM (inactive). The same molecule gave a pIC50 under setting [1] below 4.60.
For `Cc1cc(C)cc(NC(=S)NC2CC3CCC(C2)N3Cc2ccco2)c1` (stereo unspecified), in that order: > 25 µM (inactive) and below 4.60.
With `CC(C)=C1C2CCC1C(C(=O)Nc1sc(C)c(-c3ccc(C(C)C)cc3)c1C(N)=O)C2C(=O)O` (stereo unspecified), the pIC50 runs as follows: (WT cells) 4.68; under setting [1], below 4.60.
For `COc1ccc(Nc2nc(-c3ccccc3)c3ccccc3n2)cc1`, in that order: 4.97 and below 4.60.
For `Cc1ccc(-n2cc(CNCCc3cscn3)c(-c3ccc(F)cc3)n2)cc1`, the IC50 (WT cells) is > 25 µM (inactive). Further, under setting [1], the pIC50 was below 4.60.
On to `O=C(CSc1nnc(CCc2ccccc2)n1-c1ccc(Cl)cc1)c1ccccc1`, for which the pIC50 is 4.77 (WT cells) and below 4.60 under setting [1].
